Measurements reported in ChEMBL document CHEMBL3132803 (Medchemcomm, 2013).

Legend:
[1] = Cytotoxicity against human […] cells assessed as inhibition of cell proliferation after 3 days by coulter counter analysis; format: functional, cell-based; conditions: 72 h
Raji = assay: Cytotoxicity against human Raji cells assessed as inhibition of cell proliferation after 3 days by coulter counter analysis; format: functional, cell-based; conditions: 72 h
DU-145 = assay: Cytotoxicity against human DU145 cells assessed as inhibition of cell proliferation after 24 hrs by MTT assay; format: functional, cell-based; conditions: DU-145, 24 h
Serum = assay: Ratio of AUC in CSF to AUC in serum of Sprague-Dawley rat at 2.5 mg/kg, iv; format: ADME, organism-based; set-up: dose 2.5 mg/kg, route intravenous
[2] = AUC in Sprague-Dawley rat CSF at 2.5 mg/kg, iv administered as single dose by CE-UV analysis; format: ADME, organism-based; set-up: dose 2.5 mg/kg, route intravenous; conditions: cerebrospinal fluid
[3] = AUC in Sprague-Dawley rat serum at 2.5 mg/kg, iv administered as single dose by CE-UV analysis; format: ADME, organism-based; set-up: dose 2.5 mg/kg, route intravenous

| SMILES | IC50 [1] | IC50 (Raji) | IC50 (DU-145) | Ratio AUC (Serum) | AUC [2] | AUC [3] |
| --- | --- | --- | --- | --- | --- | --- |
| CNC(=O)N[C@H]1[C@@H]2NC(=O)c3ccc(Br)n3[C@@H]2C[C@H]1O | > 10 µM | > 10 µM |  |  |  |  |
| CN1C(=O)N[C@@H]2[C@H]3NC(=O)c4ccc(Br)n4[C@H]3C[C@@]21O |  |  | > 10 µM |  |  |  |
| O=C1N[C@H]2[C@@H]3NC(=O)c4cccn4[C@@H]3C[C@H]2O1 | > 10 µM | > 10 µM |  |  |  |  |
| CNC(=O)N[C@H]1[C@@H]2NC(=O)c3cccn3[C@@H]2C[C@H]1O | > 10 µM | > 10 µM |  |  |  |  |
| CN1C(=O)N[C@H]2[C@@H]3NC(=O)c4cccn4[C@@H]3C[C@]21O | 3 µM | 3.16 µM | > 10 µM |  |  |  |
| CCN1C(=O)N[C@H]2[C@@H]3NC(=O)c4cccn4[C@@H]3C[C@]21O |  |  | > 10 µM |  |  |  |
| CN1C(=O)N[C@H]2[C@@H]3NC(=O)c4ccc(Cl)n4[C@@H]3C[C@]21O | 0.08 µM | 0.18 µM | 1.2 µM | 16% | 3.75 µM·h | 22.8 µM·h |
| CCN1C(=O)N[C@H]2[C@@H]3NC(=O)c4ccc(Cl)n4[C@@H]3C[C@]21O | 0.28 µM | 0.3 µM | 2.6 µM | 27% | 10.1 µM·h | 37.5 µM·h |
| CCN1C(=O)N[C@H]2[C@@H]3NC(=O)c4cc(Cl)c(Cl)n4[C@@H]3C[C@]21O | 0.44 µM | 0.62 µM | 1.4 µM | 30.7% | 7.6 µM·h | 24.8 µM·h |
| CCN1C(=O)N[C@H]2[C@@H]3NC(=O)c4ccc(Br)n4[C@@H]3C[C@]21O |  |  | > 10 µM |  |  |  |
| COc1ccc(CN2C(=O)N[C@H]3[C@@H]4NC(=O)c5ccc(Br)n5[C@@H]4C[C@]32O)cc1 |  |  | > 10 µM |  |  |  |
| CN1C(=O)N[C@H]2[C@@H]3NC(=O)c4ccc(C5CC5)n4[C@@H]3C[C@]21O | 1 µM | 0.4 µM | 5 µM |  |  |  |
| CN1C(=O)N[C@H]2[C@@H]3NC(=O)c4ccc(-c5ccccc5)n4[C@@H]3C[C@]21O | 1.5 µM | 3.8 µM | 6 µM |  |  |  |
| CN1C(=O)N[C@H]2[C@@H]3NC(=O)c4ccc(-c5ccc(N)cc5)n4[C@@H]3C[C@]21O |  |  | > 10 µM |  |  |  |
| CN1C(=O)N[C@H]2[C@@H]3NC(=O)c4ccc(Br)n4[C@@H]3C[C@]21O [AGELASTATIN A] | 2.8 µM | 0.14 µM | 2.3 µM |  | 3.41 µM·h | 53.2 µM·h |
